Experimental data: article PMC10026764, “Overcoming the imatinib-resistant BCR-ABL mutants with new ureidobenzothiazole chemotypes endowed with potent and broad-spectrum anticancer activity” (Journal of Enzyme Inhibition and Medicinal Chemistry, 2023)
Several values for one entry are separate records, joined by “and”; a condition that tells them apart may be missing. Equal entries are not always repeated. Where two headings read alike, the source gives them in different places.

How the values were obtained:
[1] = tested on: PC-3; experiment: NCI-60 five-dose SRB assay; assay type: cell-based; settings: Homo sapiens; PC-3, prostate cancer
[2] = tested on: MDA-MB-468; experiment: NCI-60 five-dose SRB assay; assay type: cell-based; settings: Homo sapiens; MDA-MB-468, breast cancer
[3] = tested on: RPMI-8226; experiment: NCI-60 five-dose SRB assay; assay type: cell-based; settings: Homo sapiens; RPMI-8226, leukaemia
[4] = tested on: COLO 205; experiment: NCI-60 five-dose SRB assay; assay type: cell-based; settings: Homo sapiens; COLO 205, colon cancer
[5] = tested on: DU-145; experiment: NCI-60 five-dose SRB assay; assay type: cell-based, human; settings: DU-145, prostate cancer
[6] = tested on: SK-MEL-5; experiment: cells; assay type: cell-based; settings: SK-MEL-5, melanoma
[7] = tested on: SR; experiment: NCI-60 five-dose SRB assay; assay type: cell-based, human; settings: leukaemia
[8] = tested on: SW-620; experiment: NCI-60 five-dose SRB assay; assay type: cell-based; settings: Homo sapiens; SW-620, colon cancer
[9] = tested on: LOX IMVI; experiment: NCI-60 five-dose SRB assay; assay type: cell-based; settings: Homo sapiens, melanoma
[10] = tested on: OVCAR-4; experiment: NCI-60 five-dose SRB assay; assay type: cell-based; settings: Homo sapiens; OVCAR-4, ovarian cancer
[11] = tested on: HCT-116; experiment: NCI-60 five-dose SRB assay; assay type: cell-based; settings: Homo sapiens; HCT-116, colon cancer
[12] = tested on: A498; experiment: NCI-60 five-dose SRB assay; assay type: cell-based; settings: Homo sapiens; A498, renal cancer
[13] = tested on: IGROV1; experiment: NCI-60 five-dose SRB assay; assay type: cell-based; settings: Homo sapiens, IGROV-1; IGROV1, ovarian cancer
[14] = tested on: leukaemia K-562 cells; experiment: MTT antiproliferative assay
Source text: (§1) These cellular outcomes define the impact of BCR-ABL inhibition on the proliferation of K-562 cells.

[15] = tested on: HL-60(TB); experiment: NCI-60 five-dose SRB assay; assay type: cell-based; settings: Homo sapiens, leukaemia
[16] = tested on: K-562; experiment: NCI-60 five-dose SRB assay; assay type: cell-based, human; settings: K-562, leukaemia
[17] = tested on: MCF7; experiment: NCI-60 five-dose SRB assay; assay type: cell-based, human; settings: MCF7, breast cancer
[18] = tested on: SK-MEL-2; experiment: NCI-60 five-dose SRB assay; assay type: cell-based; settings: Homo sapiens; SK-MEL-2, melanoma
[19] = target: T1, BCR-ABL^T315I (Homo sapiens, UniProt P00519, T315I); experiment: In vitro kinase screening (RBC), BCR-ABL^T315I; assay type: biochemical; settings: 10-dose IC50 mode, 3-fold serial dilution, 10 μM ATP
T1 construct: purchased Reaction Biology Corporation (RBC, Malvern, PA, USA)

[20] = tested on: UO-31; experiment: NCI-60 five-dose SRB assay; assay type: cell-based, human; settings: UO-31, renal cancer
[21] = tested on: TK-10; experiment: NCI-60 five-dose SRB assay; assay type: cell-based; settings: Homo sapiens; TK-10, renal cancer
[22] = tested on: L132 normal cell; experiment: MTT antiproliferative assay; settings: Homo sapiens, L132, 72 h, read-out: GI50 L132
Source text: as §1

[23] = tested on: NCI-H226; experiment: NCI-60 five-dose SRB assay; assay type: cell-based; settings: Homo sapiens; NCI-H226, non-small cell lung cancer
[24] = tested on: A549/ATCC; experiment: NCI-60 five-dose SRB assay; assay type: cell-based; settings: Homo sapiens, non-small cell lung cancer
[25] = tested on: NCI-H522; experiment: NCI-60 five-dose SRB assay; assay type: cell-based, human
[26] = tested on: NCI 60-cell line panel; experiment: cells; assay type: cell-based
[27] = tested on: OVCAR-3; experiment: NCI-60 five-dose SRB assay; assay type: cell-based, human; settings: OVCAR-3, ovarian cancer
[28] = tested on: SF-295; experiment: NCI-60 five-dose SRB assay; assay type: cell-based; settings: Homo sapiens; SF-295, CNS cancer
[29] = tested on: HOP-92; experiment: NCI-60 five-dose SRB assay; assay type: cell-based; settings: Homo sapiens; HOP-92, non-small cell lung cancer
[30] = tested on: NCI-60 cell lines; experiment: NCI-60 single dose SRB assay (panel); assay type: cell-based; settings: single dose 10 μM
Source text: To gain further insights about the anticancer profile of this new ureidobenzothiazole chemotypes, the structures of all final compounds were submitted to the National Cancer Institute (NCI, Developmental Therapeutics Program, Bethesda, MD, USA). Based on NCI selection criteria, compounds 2b (AK-HW-90), 2e, and 2f were chosen for broad screening against a library of 60 human cancer cell lines, representing nine types of blood and solid cancers. Employing the highly sensitive sulforhodamine B (SRB) assay, compounds 2b, 2e, and 2f were tested initially at a single dose of 10 μM, and their detailed activities on the percentages growth of the NCI-60 cell lines were illustrated in Figure 5, and compared with that observed for the lead benzothiazole AKE-5l.

[31] = tested on: ACHN; experiment: NCI-60 five-dose SRB assay; assay type: cell-based, human; settings: renal cancer
[32] = tested on: NCI-H23; experiment: NCI-60 five-dose SRB assay; assay type: cell-based; settings: Homo sapiens; NCI-H23, non-small cell lung cancer
[33] = tested on: NCI-H322M; experiment: NCI-60 five-dose SRB assay; assay type: cell-based, human
[34] = Homo sapiens, read-out: LC50 (the source's name)

## CCN1CCN(c2ccc(NC(=O)Nc3nc4ccc(-c5ccccc5OC)cc4s3)cc2)CC1 [Compound 2b]
[1]
  GI50: 1790 nM
[2]
  GI50: 2170 nM
[3]
  GI50: 2060 nM
[4]
  GI50: 1970 nM
[5]
  TGI: 3260 nM
[5]; Homo sapiens
  GI50: 1740 nM
[5]; [34]
  CC50: 6080 nM
[6]; Homo sapiens
  GI50: 1730 nM
  LC50 (50% lethal concentration): 5630 nM
[6]
  TGI: 3120 nM
[7]; Homo sapiens
  GI50: ~1700 nM
[7]
  GI50: 1650 nM
[8]
  GI50: 1940 nM
[9]
  GI50: 1700 nM
[10]
  GI50: 1680 nM
[11]
  GI50: 1580 nM
[12]
  GI50: 1800 nM
[13]
  GI50: 1870 nM
[14]; Homo sapiens, K562, 72 h, read-out: GI50 K-562
  GI50: 3390 nM
[14]; MTT, 72 h
  SI: selectivity index (GI50 (L132)/GI50 (K562)): 5.3
[15]
  GI50: 1730 nM
[16]; Homo sapiens, K562
  GI50: 293 nM
[16]
  TGI: 1340 nM
[17]; Homo sapiens
  GI50: 1310 nM
[17]; [34]
  CC50: 6250 nM
[17]
  TGI: 2860 nM
[18]
  GI50: 1940 nM
[19]
  IC50: 0.65 nM and 0.651 nM
[20]; Homo sapiens
  GI50: 1520 nM
[20]; [34]
  CC50: 5630 nM
[20]
  TGI: 2920 nM
[21]
  GI50: 2120 nM
[22]
  GI50: 17900 nM
[23]
  GI50: 2090 nM
[24]
  GI50: 1980 nM
[25]; Homo sapiens, NCI-H522, NCI-H522, non-small cell lung cancer
  GI50: ~1760 nM
[25]; NCI-H522, non-small cell lung cancer
  GI50: 1750 nM
[26]; Homo sapiens, 60 cell, all ovarian cancer cell lines, read-out: GI50
  GI50: < 2000 nM
[26]; Homo sapiens, 60 cell, all tested melanoma cell lines, read-out: GI50
  GI50: 1540 to 2510 nM
[26]; Homo sapiens, 60 cell, several cancer cells
  LC50: < 10000 nM
[26]; Homo sapiens, COLO205, HCC-2998, HCT-116 and HCT-15 colon cancer cells, read-out: GI50
  GI50: 1070 to 2650 nM
[26]; all examined cell lines
  GI50: one-digit micromolar
[26]; several cancer cells
  TGI: < 5000 nM
[27]; Homo sapiens
  GI50: 1640 nM
  LC50 (concentration killing 50% of cells): 5900 nM
[27]
  TGI: 3110 nM
[28]
  GI50: 1680 nM
[29]
  GI50: 1470 nM
[30]
  number of cancer cells with lethal/cytotoxic effects (minus % growth values): 55 cancer cells
[31]; Homo sapiens
  GI50: 1740 nM
[31]; [34]
  CC50: 5580 nM
[31]
  TGI: 3110 nM
[32]
  GI50: 1670 nM
[33]; Homo sapiens, NSCL cancer, read-out: LC50 (the source's name)
  CC50: 5990 nM
[33]; Homo sapiens, non-small cell lung cancer
  GI50: 1530 nM
[33]; NSCL cancer
  TGI: 3030 nM
